Measured values reported in patent US20110189194A1, “USE OF CD95 INHIBITORS FOR THE TREATMENT OF INFLAMMATORY DISORDERS” (Deutsches Krebsforschungszentrum Stiftung des offentlichen …, priority 2008, published 2011).
“Also recorded” adds a separate entry of the source.

Key:
[1] = tested on: bone marrow derived macrophages; assay: Two chamber in vitro migration assay, macrophages; type: cell-based, mouse
Protocol: (§1) Migration of bone marrow derived neutrophils or macrophages was assessed in vitro in a two chamber migration assay. Transwell inserts [3 μm (BD #353096) or 8 μm (BD #353097) pore size for neutrophils or macrophages respectively] were coated with matrigel (50 μg/ml; BD #354234). 5×10^5 neutrophils or macrophages were plated in 500 μl medium onto the upper chamber. Cells were left untreated or treated with CD95L-T4 by adding 10, 20 and 40 ng/ml to the upper chamber. The number of migrated cells was counted 3 hours for neutrophils and 24 hours for macrophages after treatment.
Transfection of primary macrophages was performed at day 8 in culture with lipofectamine (Invitrogen #11668019) according to the manufacturer's protocol. Briefly, macrophages were transfected with mouse […] Syk siRNA ON-TARGETplus SMARTpool siRNA or a non-targeting SMARTpool siRNA using Lipofectamine 2000. 48 h later Syk knockdown was assessed by Western Blot. At the same time, cells were stimulated with CD95L-T4 and analysed after 24 h for migration, MMP-activity or Western blots.
Migration of bone marrow derived neutrophils or macrophages was assessed in vitro in a two chamber migration assay. […] The number of migrated cells was counted 3 h for neutrophils, 4 h for dHL-60 and 24 h for macrophages after treatment by using a hemocytometer. […]

[2] = tested on: bone marrow derived neutrophils; assay: Two chamber in vitro migration assay, neutrophils; type: cell-based, mouse
Protocol: as §1
The role of metalloproteinases on neutrophil recruitment was investigated by using selective inhibitors of MMP-2/9. Neutrophils were pre-incubated with MMP-2/9 inhibitor (50 μM; Calbiochem #444251) 30 minutes prior to CD95L-T4 treatment and migrating cells were calculated.
Migration of bone marrow derived neutrophils or macrophages was assessed in vitro in a two chamber migration assay. Transwell inserts [3 μm (BD #353096) or 8 μm (BD #353097) pore size for neutrophils or macrophages, respectively] were coated with matrigel (50 μg/ml; BD #354234). 5×10^5 neutrophils, 1×10^6 dHL60 or 2×10^5 macrophages were plated in 500 μl medium onto the upper chamber. Cells were left untreated or treated with CD95L-T4 (engineered Mus musculus CD95L (Kleber et al., 2008)) by adding 10, 20 and 40 ng/ml to the upper chamber. The number of migrated cells was counted 3 h for neutrophils, 4 h for dHL-60 and 24 h for macrophages after treatment by using a hemocytometer. […] Data of the migration assays are representative of at least 4 independent experiments with 6 technical replicates per condition.
(§2) The role of metalloproteinases on neutrophil and macrophage recruitment was investigated by using selective inhibitors of MMP-2/9. Neutrophils, dHL-60 and macrophages were pre-incubated with MMP-2/9 inhibitors (50 μM; Calbiochem #444251) 30 minutes prior to CD95L-T4 treatment and the number of migrated cells was counted at the times indicated previously.

dHL-60 cells = assay: Two chamber in vitro migration assay, dHL-60; type: cell-based, human
Protocol: The human myeloid HL-60 cell line (ACC 3) was kindly provided by Dr. Lucie Darner. PMN-like differentiation of HL-60 cells and the electroporation protocol was described previously. Briefly, HL-60 cells were allowed to differentiate in presence of 1.3% DMSO for 6 days before used for protein analysis. Electroporation of dHL-60 cells was performed at day 4. For electroporation, a 400 μL aliquot of dHL-60 (1×10^7 cells/mL) in RPMI was transferred to a Gene Pulser cuvette with an 0.4-cm electrode (Bio-Rad, Hercules, Calif.) and mixed with […] Syk siRNA ON-TARGETplus SMARTpool siRNA or non-targeting SMARTpool siRNA. Cells were incubated for 10 minutes at room temperature (RT) and subjected to an electroporation pulse of 310 V and 1175 μFF (Gene Pulser Biorad, Munich, Germany). 48 h to 72 h after electroporation, Syk knockdown was assessed by Western Blot. At the same time, cells were stimulated with CD95L-T4 and analysed after 4 h for migration.
Migration of bone marrow derived neutrophils or macrophages was assessed in vitro in a two chamber migration assay. Transwell inserts [3 μm (BD #353096) or 8 μm (BD #353097) pore size for neutrophils or macrophages, respectively] were coated with matrigel (50 μg/ml; BD #354234). 5×10^5 neutrophils, 1×10^6 dHL60 or 2×10^5 macrophages were plated in 500 μl medium onto the upper chamber. Cells were left untreated or treated with CD95L-T4 (engineered Mus musculus CD95L (Kleber et al., 2008)) by adding 10, 20 and 40 ng/ml to the upper chamber. The number of migrated cells was counted 3 h for neutrophils, 4 h for dHL-60 and 24 h for macrophages after treatment by using a hemocytometer. […]
as §2

Syk [3] = assay: Western blot, CD95L-induced phosphorylation of Syk in primary macrophages; type: cell-based, mouse
Protocol: (§3) Protein extraction and immunoblotting was performed as previously described. Membranes were probed with the following antibodies: phosphorylated AKT (p-Ser473-AKT, 1:1000, Cell Signaling #9271), total AKT (t-AKT, 1:1000, Cell Signaling #9272), phosphorylated Src (p-Src Tyr 416, 1:1000, Cell Signaling #2101), total Src (1:1000, Cell Signaling #2108), phosphorylated Syk (pSyk Tyr 319/352, 1:1000, Cell Signaling #2701), total Syk (1:1000, Cell Signaling #2712).

Syk [4] = assay: Western blot, CD95L-induced phosphorylation of Syk in dHL-60; type: cell-based, human; conditions: CD95L 20 and 40 ng/ml
Protocol: as §3

SMILES	CD95L-T4 induced migration of macrophages (in words) [1]	migration after MMP-2/9 blockade, macrophages, cell count ± SEM ([1]; CD95L-T4 20 ng/ml, with or without inhibitor 50 μM)	CD95L-T4 induced migration of neutrophils (in words) [2]	migration after MMP-2/9 blockade, neutrophils, cell count ± SEM ([2]; CD95L-T4 10 ng/ml, with or without inhibitor 50 μM)	migration after MMP-2/9 blockade, neutrophils, cell count ± SEM ([2]; Control (no CD95L-T4), inhibitor 50 μM, 30 min pre-incubation)	CD95L-T4 induced migration of dHL-60 (in words) (dHL-60 cells)	migration after MMP-2/9 blockade, dHL-60, cell count ± SEM (dHL-60 cells; CD95L-T4 40 ng/ml, with or without inhibitor 50 μM)	migration after MMP-2/9 blockade, dHL-60, cell count ± SEM (dHL-60 cells; Control (no CD95L-T4), inhibitor 50 μM)	CD95L-induced phosphorylation of Syk in primary macrophages (Syk [3])	CD95L-induced phosphorylation of Syk in dHL-60 (Syk [4])
O=C(O)[C@@H](Cc1ccccc1)NS(=O)(=O)c1ccc(-c2ccccc2)cc1 [MMP-2/9 inhibitor]	blocked	323.80 ± 100.20	blocked	10 ng/ml: 724.69 ± 150.01	Control: 713.00 ± 161.89	blocked	40 ng/ml: 683.09 ± 170.89	Control: 658.09 ± 137.65		
CC(C)(C)n1nc(-c2ccc(Cl)cc2)c2c(N)ncnc21 [PP2]									blocked; also recorded: inhibited	blocked; also recorded: inhibited
